Data: patent US7071190B2, “Inhibitors to tubulin polymerization” (Rigel Pharmaceuticals, Inc., priority 2002, dated 2006)
Where two headings read alike, the source gives them in different places.

Tested on: A549 cells
Experiment: Bromodeoxyuridine (BrdU) proliferation assay
Assay type: cell-based, human
Conditions: for IC50: BrdU ELISA 48 hours after addition of compound, tested 0.03-10 uM, cell line not given (A549 method; SW-480 and MDA-MB-231 also used), read-out: Assay Result (IC50μM); for Activity ranking: most active compounds of the invention / Activity ranking: particularly active examples of the compounds of the invention: antiproliferative activity
Protocol: In order to determine the antiproliferative activity of microtubule inhibitors, A549 cells were plated in 96 well plates at 2000 cells/well 24 hours prior to the addition of a compound of the invention in 80 ul growth media (F12K, 10% FBS, Pen/Strep). Prior to addition to cells, compounds were solubilized in 100% DMSO to 5 mM and serially diluted in 6 semi-log steps in 100% DMSO. The diluted compounds were added to cells by two 15.8-fold dilution steps, the first being a dilution into a 23% ethanol/H2O mixture and the second being a dilution into growth media. Finally, these dilutions were followed by a 1:1 dilution onto cells. The resulting final solvent concentration was 0.2% DMSO/0.75% ethanol. Compounds were tested at final concentrations of 10, 3, 1, 0.3, 0.1 and 0.03 uM. Forty-eight hours after the addition of compound, the effects on cellular proliferation were measured using a cell proliferation BrdU ELISA (Roche Molecular Biochemicals, Cat.#1 669 915).

## S=C(NNc1ncnc2cc(-c3ccccc3)sc12)Nc1ccccc1 [Compound 2]
  IC50: 0.39 µM
  Activity ranking: most active compounds of the invention: most active
  Activity ranking: particularly active examples of the compounds of the invention: particularly active

## FC(F)(F)c1ccccc1NC(=S)NNc1ncnc2cc(-c3ccccc3)sc12 [Compound 4]
Homo sapiens, A549, 48 h
  IC50: 0.904 µM
  Activity ranking: most active compounds of the invention: most active
  Activity ranking: particularly active examples of the compounds of the invention: particularly active

## COc1cccc(NC(=S)NNc2ncnc3cc(-c4ccccc4)sc23)c1 [Compound 5]
Homo sapiens, A549, 48 h
  IC50: 0.49 µM
  Activity ranking: most active compounds of the invention: most active
  Activity ranking: particularly active examples of the compounds of the invention: particularly active

## COc1ccccc1NC(=S)NNc1ncnc2cc(-c3ccccc3)sc12 [Compound 6]
Homo sapiens, A549, 48 h
  IC50: 0.329 µM
  Activity ranking: most active compounds of the invention: most active
  Activity ranking: particularly active examples of the compounds of the invention: particularly active

## CCOC(=O)c1ccccc1NC(=S)NNc1ncnc2cc(-c3ccccc3)sc12 [Compound 10]
Homo sapiens, A549, 48 h
  IC50: 1.33 µM
  Activity ranking: particularly active examples of the compounds of the invention: particularly active

## CCOC(=O)c1ccccc1NC(=S)NNc1ncnc2cc(-c3ccccc3)sc12 [Compound 11]
  IC50: 2.2 µM
  Activity ranking: particularly active examples of the compounds of the invention: particularly active

## COc1ccc(NC(=S)NNc2ncnc3cc(-c4ccccc4)sc23)c(OC)c1 [Compound 13]
  IC50: 0.38 µM
  Activity ranking: most active compounds of the invention: most active
  Activity ranking: particularly active examples of the compounds of the invention: particularly active

## COc1ccc(NC(=S)NNc2ncnc3cc(-c4ccccc4)sc23)c(OC)c1 [Compound 14]
  IC50: 26.7 µM

## COc1ccc(NC(=S)NNc2ncnc3cc(-c4ccccc4)sc23)cc1OC [Compound 15]
Homo sapiens, A549, 48 h
  IC50: 6.7 µM
  Activity ranking: particularly active examples of the compounds of the invention: particularly active

## COc1ccc(OC)c(NC(=S)NNc2ncnc3cc(-c4ccccc4)sc23)c1 [Compound 16]
Homo sapiens, A549, 48 h
  IC50: 0.998 µM
  Activity ranking: most active compounds of the invention: most active
  Activity ranking: particularly active examples of the compounds of the invention: particularly active

## COc1cc([N+](=O)[O-])ccc1NC(=S)NNc1ncnc2cc(-c3ccccc3)sc12 [Compound 17]
  IC50: 5.11 µM
  Activity ranking: particularly active examples of the compounds of the invention: particularly active

## COc1cc([N+](=O)[O-])ccc1NC(=S)NNc1ncnc2cc(-c3ccccc3)sc12 [Compound 18]
  IC50: 10.7 µM
  Activity ranking: particularly active examples of the compounds of the invention: particularly active

## S=C(NNc1ncnc2cc(-c3ccccc3)sc12)NC1CCCC1 [Compound 20]
Homo sapiens, A549, 48 h
  IC50: 0.071 µM
  Activity ranking: most active compounds of the invention: most active
  Activity ranking: particularly active examples of the compounds of the invention: particularly active

## S=C(NNc1ncnc2cc(-c3ccccc3)sc12)N[C@@H]1CCC[C@H]1OCc1ccccc1 [Compound 22]
Homo sapiens, A549, 48 h
  IC50: 5.57 µM
  Activity ranking: particularly active examples of the compounds of the invention: particularly active

## S=C(NNc1ncnc2cc(-c3ccccc3)sc12)Nc1cccnc1 [Compound 25]
Homo sapiens, A549, 48 h
  IC50: 6.44 µM
  Activity ranking: particularly active examples of the compounds of the invention: particularly active

## NC(=S)NNc1ncnc2cc(-c3ccccc3)sc12 [Compound 26]
Homo sapiens, A549, 48 h
  IC50: 5.75 µM
  Activity ranking: particularly active examples of the compounds of the invention: particularly active

## OCCCCNC(=S)NNc1ncnc2cc(-c3ccccc3)sc12 [Compound 28]
Homo sapiens, A549, 48 h
  IC50: 6.31 µM
  Activity ranking: particularly active examples of the compounds of the invention: particularly active

## Cc1ccc(-c2cc3ncnc(NNC(N)=S)c3s2)cc1 [Compound 30]
Homo sapiens, A549, 48 h
  IC50: 1.97 µM
  Activity ranking: particularly active examples of the compounds of the invention: particularly active

## Cc1ccc(-c2cc3ncnc(NNC(=S)Nc4ccccc4)c3s2)cc1 [Compound 31]
Homo sapiens, A549, 48 h
  IC50: 0.369 µM
  Activity ranking: most active compounds of the invention: most active
  Activity ranking: particularly active examples of the compounds of the invention: particularly active

## COc1ccc(-c2cc3ncnc(NNC(=S)Nc4ccccc4)c3s2)cc1 [Compound 33]
Homo sapiens, A549, 48 h
  IC50: 0.155 µM
  Activity ranking: most active compounds of the invention: most active
  Activity ranking: particularly active examples of the compounds of the invention: particularly active

## S=C(NNc1ncnc2cc(-c3ccc(Cl)cc3)sc12)Nc1ccccc1 [Compound 34]
Homo sapiens, A549, 48 h
  IC50: 1.5 µM
  Activity ranking: particularly active examples of the compounds of the invention: particularly active

## S=C(NNc1ncnc2cc(-c3cccc(Cl)c3)sc12)Nc1ccccc1 [Compound 35]
Homo sapiens, A549, 48 h
  IC50: 2.79 µM
  Activity ranking: particularly active examples of the compounds of the invention: particularly active

## Cc1ccc(-c2cc3ncnc(NNC(=S)NC4CC4)c3s2)cc1 [Compound 38]
Homo sapiens, A549, 48 h
  IC50: 0.121 µM
  Activity ranking: most active compounds of the invention: most active
  Activity ranking: particularly active examples of the compounds of the invention: particularly active

## S=C(NNc1ncnc2cc(-c3cccc(Cl)c3)sc12)NC1CC1 [Compound 42]
Homo sapiens, A549, 48 h
  IC50: 0.146 µM
  Activity ranking: most active compounds of the invention: most active
  Activity ranking: particularly active examples of the compounds of the invention: particularly active

## Cc1cccc(-c2cc3ncnc(NNC(=S)NC4CCCC4)c3s2)c1 [Compound 46]
Homo sapiens, A549, 48 h
  IC50: 0.256 µM
  Activity ranking: most active compounds of the invention: most active
  Activity ranking: particularly active examples of the compounds of the invention: particularly active

## Cc1cccc(-c2cc3ncnc(NNC(=S)N[C@@H]4CCC[C@H]4OCc4ccccc4)c3s2)c1 [Compound 47]
Homo sapiens, A549, 48 h
  IC50: 7.16 µM
  Activity ranking: particularly active examples of the compounds of the invention: particularly active

## Cc1cccc(-c2cc3ncnc(NNC(=S)NCCCO)c3s2)c1 [Compound 48]
Homo sapiens, A549, 48 h
  IC50: 1.43 µM
  Activity ranking: particularly active examples of the compounds of the invention: particularly active

## Cc1cccc(-c2cc3ncnc(NNC(=S)NCC(O)CO)c3s2)c1 (stereo not shown) [Compound 49]
  Activity ranking: particularly active examples of the compounds of the invention: particularly active

## Cc1cc(C)cc(-c2cc3ncnc(NNC(=S)Nc4ccccc4)c3s2)c1 [Compound 50]
Homo sapiens, A549, 48 h
  IC50: 0.927 µM
  Activity ranking: most active compounds of the invention: most active
  Activity ranking: particularly active examples of the compounds of the invention: particularly active

## Cc1ccc(-c2cc3ncnc(NNC(=S)Nc4ccccc4)c3s2)cc1C [Compound 51]
Homo sapiens, A549, 48 h
  IC50: 0.622 µM
  Activity ranking: most active compounds of the invention: most active
  Activity ranking: particularly active examples of the compounds of the invention: particularly active

## S=C(NNc1ncnc2cc(-c3ccc4c(c3)OCO4)sc12)Nc1ccccc1 [Compound 52]
  Activity ranking: particularly active examples of the compounds of the invention: particularly active

## Cc1ccc(-c2cc3ncnc(NNC(=S)NC4CC4)c3s2)cc1C [Compound 55]
Homo sapiens, A549, 48 h
  IC50: 0.15 µM
  Activity ranking: most active compounds of the invention: most active
  Activity ranking: particularly active examples of the compounds of the invention: particularly active

## S=C(NNc1ncnc2cc(-c3ccc4c(c3)OCO4)sc12)NC1CC1 [Compound 56]
  Activity ranking: particularly active examples of the compounds of the invention: particularly active

## S=C(NCc1ccccc1)NNc1ncnc2cc(-c3ccccc3)sc12 [Compound 57]
Homo sapiens, A549, 48 h
  IC50: 0.23 µM
  Activity ranking: most active compounds of the invention: most active
  Activity ranking: particularly active examples of the compounds of the invention: particularly active

## S=C(NCCc1ccccc1)NNc1ncnc2cc(-c3ccccc3)sc12 [Compound 58]
Homo sapiens, A549, 48 h
  IC50: 1.11 µM
  Activity ranking: particularly active examples of the compounds of the invention: particularly active

## S=C(NCC1CCCO1)NNc1ncnc2cc(-c3ccccc3)sc12 (stereo not shown) [Compound 63]
Homo sapiens, A549, 48 h
  IC50: 0.211 µM
  Activity ranking: most active compounds of the invention: most active
  Activity ranking: particularly active examples of the compounds of the invention: particularly active

## S=C(NC[C@H]1CCCO1)NNc1ncnc2cc(-c3ccccc3)sc12 [Compound 64]
Homo sapiens, A549, 48 h
  IC50: 0.188 µM
  Activity ranking: most active compounds of the invention: most active
  Activity ranking: particularly active examples of the compounds of the invention: particularly active

## S=C(NC[C@@H]1CCCO1)NNc1ncnc2cc(-c3ccccc3)sc12 [Compound 65]
Homo sapiens, A549, 48 h
  IC50: 0.134 µM
  Activity ranking: most active compounds of the invention: most active
  Activity ranking: particularly active examples of the compounds of the invention: particularly active

## S=C(NCCN1CCCCC1)NNc1ncnc2cc(-c3ccccc3)sc12 [Compound 67]
Homo sapiens, A549, 48 h
  IC50: 18.6 µM
  Activity ranking: particularly active examples of the compounds of the invention: particularly active

## S=C(NCCN1CCOCC1)NNc1ncnc2cc(-c3ccccc3)sc12 [Compound 68]
Homo sapiens, A549, 48 h
  IC50: 6.03 µM
  Activity ranking: particularly active examples of the compounds of the invention: particularly active

## S=C(NCc1ccco1)NNc1ncnc2cc(-c3ccccc3)sc12 [Compound 69]
Homo sapiens, A549, 48 h
  IC50: 0.093 µM
  Activity ranking: most active compounds of the invention: most active
  Activity ranking: particularly active examples of the compounds of the invention: particularly active

## CNC(=S)NNc1ncnc2cc(-c3ccccc3)sc12 [Compound 70]
Homo sapiens, A549, 48 h
  IC50: 1.61 µM
  Activity ranking: particularly active examples of the compounds of the invention: particularly active

## CCCNC(=S)NNc1ncnc2cc(-c3ccccc3)sc12 [Compound 71]
Homo sapiens, A549, 48 h
  IC50: 0.02 µM
  Activity ranking: most active compounds of the invention: most active
  Activity ranking: particularly active examples of the compounds of the invention: particularly active

## CC(C)NC(=S)NNc1ncnc2cc(-c3ccccc3)sc12 [Compound 72]
Homo sapiens, A549, 48 h
  IC50: 0.024 µM
  Activity ranking: most active compounds of the invention: most active
  Activity ranking: particularly active examples of the compounds of the invention: particularly active
